Data as given in the supplement of paper PMC10307832.

What was measured:
Assay in all cases: relative viability (nuclei count vs DMSO), 5 days (fraction); higher = more cells survive
TPCA-1 + Decitabine = compound: C1=CC(=CC=C1C2=CC(=C(S2)NC(=O)N)C(=O)N)F [TPCA-1] + Nc1ncn([C@H]2C[C@H](O)[C@@H](CO)O2)c(=O)n1 [Decitabine] (partner 2 µM)
Outline: (§1)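 Relative viability divides the nuclei count in treated wells by that in vehicle wells. Lung cancer cell lines were seeded in 1536-well plates, dosed by pin tool the next day, and fixed and stained after 5 days in one step with final 0.05% Triton X-100, 1% formaldehyde and 1 ug/ml Hoechst. Dosing was a single drug or a fixed anchor-drug dose plus five library-drug doses (not always all listed) in √10 steps, and values are medians of duplicate plates imaged at 4×.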

[1] = compound: C1/C(=C\C2=CC=CS2)/C(=O)/C(=C/C3=CC=CS3)/C1 + CC(=O)c1c(C)c2cnc(Nc3ccc(N4CCNCC4)cn3)nc2n(C2CCCC2)c1=O [Palbociclib] (partner 0.5 µM)
Outline: as §1

[2] = compound: C[C@]12O[C@H](C[C@]1(O)CO)n1c3ccccc3c3c4c(c5c6ccccc6n2c5c31)CNC4=O [Lestaurtinib] + CC(=O)c1c(C)c2cnc(Nc3ccc(N4CCNCC4)cn3)nc2n(C2CCCC2)c1=O [Palbociclib] (partner 0.5 µM)
Outline: as §1

TPCA-1 + Luminespib = compound: C1=CC(=CC=C1C2=CC(=C(S2)NC(=O)N)C(=O)N)F [TPCA-1] + CCNC(=O)c1noc(-c2cc(C(C)C)c(O)cc2O)c1-c1ccc(CN2CCOCC2)cc1 [Luminespib] (partner 0.01 µM)
Outline: as §1

UMC-11 gave a relative viability (TPCA-1 + Decitabine; first compound 0.04 µM) of 0.584, a relative viability (TPCA-1 + Decitabine; first compound 0.1265 µM) of 0.501 and a relative viability (TPCA-1 + Decitabine; first compound 0.4 µM) of 0.792. It also gave a relative viability (TPCA-1 + Decitabine; first compound 1.265 µM) of 0.613, a relative viability (TPCA-1 + Decitabine; first compound 4 µM) of 0.439 and a relative viability ([1]; first compound 0.2 µM) of 0.308. It also gave a relative viability ([1]; first compound 0.6325 µM) of 0.367, a relative viability ([1]; first compound 2 µM) of 0.322 and a relative viability ([1]; first compound 6.325 µM) of 0.334. It also gave a relative viability ([1]; first compound 20 µM) of 0.338, a relative viability ([2]; first compound 0.005 µM) of 0.344 and a relative viability ([2]; first compound 0.01581 µM) of 0.294. The relative viability ([2]; first compound 0.05 µM) was 0.33, the relative viability ([2]; first compound 0.1581 µM) was 0.215 and the relative viability ([2]; first compound 0.5 µM) was 0.198. For the same cell line, the relative viability (TPCA-1 + Luminespib; first compound 0.04 µM) was 1.18, the relative viability (TPCA-1 + Luminespib; first compound 0.1265 µM) was 0.914 and the relative viability (TPCA-1 + Luminespib; first compound 0.4 µM) was 1.09. The relative viability (TPCA-1 + Luminespib; first compound 1.265 µM) was 0.957 and the relative viability (TPCA-1 + Luminespib; first compound 4 µM) was 0.684.
